This passage reports EC50, CC50 and IC50 results from patent US20240199647A1, “ANTI-VIRAL COMPOUNDS” (Aligos Therapeutics, Inc., priority 2022, published 2024).

pEC50, pIC50: −log10 of the molar value. Where two headings read alike, the source gives them in different places.

Data set [1] has as its system SARS-CoV-2 B.1.1.7 lineage. Briefly: microbe, parasite or virus in culture. Format: cell-based. Particulars: Severe acute respiratory syndrome coronavirus 2, Table C, SARS-CoV-2 B.1.1.7 in A549-dual_ACE2_TMPRSS2 cells, read-out: A549-dual_ACE2_TMPRSS2 (EC50).
The next data set in a line: in vitro. Particulars: human.
For data set [2], the system named is human beta-coronavirus OC43. Put plainly: OC43 Coronavirus Assay in HeLa cells (antiviral, cytopathic effect, cell-titer-glo). Format: cell-based. Particulars: Betacoronavirus 1, OC43, HeLa, Table B; OC43 coronavirus in HeLa cells, class symbols; read-out: EC50.
The target of a further data set is SARS-Cov-2 3CLpro (Severe acute respiratory syndrome coronavirus 2, UniProt P0DTD1). Briefly: biochemical. Particulars: Table A, class symbols, read-out: SARS-Cov-2 (IC50).
The nature of data set [3]: Cytotoxicity in HeLa cells without addition of OC43 virus (in parallel). Particulars: human, HeLa cells, without OC43 virus.

In the case of `CN(C(=O)[C@H](CC1CC1)NC(=O)C(F)(F)F)[C@@H](CC1CC1)C(=O)N1C[C@@]2(C[C@H]1C#N)Oc1cc(C#N)cc(F)c1NC2=O` [Example 34, (S)-3-cyclopropyl-N—((S)-3-cyclopropyl-1-((2R,5'S)-5′,7-dicyano-5-fluoro-3-oxo-3,4-dihydrospiro[benzo[b][1,4]oxazine-2,3′-pyrrolidin]-1′-yl)-1-oxopropan-2-yl)-N-methyl-2-(2,2,2-trifluoroacetamido)propanamide], the negative-log EC50 (pEC50) in data set [1] (class symbols) and in data set [2] was 6.00 to 7.00 each time. This compound came in with a CC50 in the data set “in vitro” of over 1000 nM. The negative-log IC50 (pIC50) at SARS-Cov-2 3CLpro was over 7.70. The compound further displayed a CC50 at 6 days in data set [3] of over 10000 nM.
Regarding `CCOC[C@H](NC(=O)C(F)(F)F)C(=O)N(C)[C@@H](CC1CC1)C(=O)N1C[C@@]2(C[C@H]1C#N)Oc1cccnc1NC2=O` [Compound 220], the pEC50 in data set [1] (class symbols) is 6.00 to 7.00; in data set [2], over 7.00. Also, the CC50 in “in vitro” was over 1000 nM. The pIC50 at SARS-Cov-2 3CLpro was over 7.70. In addition, in data set [3], the CC50 at 6 days is over 10000 nM.
In the same order, the values of `CC1NC(=O)[C@]2(C[C@@H](C#N)N(C(=O)[C@H](CC3CC3)N(C)C(=O)[C@H](CC3CC3)NC(=O)C(F)(F)F)C2)Oc2ccccc21` (stereo partly drawn) [Compound 222, (2S)—N-((2S)-1-((2R,5'S)-5′-cyano-5-methyl-3-oxo-4,5-dihydro-3H-spiro[benzo[f][1,4]oxazepine-2,3′-pyrrolidin]-1′-yl)-3-cyclopropyl-1-oxopropan-2-yl)-3-cyclopropyl-N-methyl-2-(2,2,2-trifluoroacetamido)propanamide] are over 7.00, over 7.00, over 1000 nM, over 7.70 and over 10000 nM.
For the compound `CC(C)C[C@@H](C(=O)N1C[C@@]2(CC1C#N)Oc1cc(F)cc(F)c1NC2=O)N(C)C(=O)[C@H](C)NC(=O)C(F)(F)F` (stereo partly drawn) [Compound 51], the pEC50 in data set [1] (class symbols) and in data set [2] was 6.00 to 7.00 throughout. In the data set “in vitro”, this compound had a CC50 of over 1000 nM. Moreover, the pIC50 at SARS-Cov-2 3CLpro is over 7.70. The compound further showed a CC50 at 6 days in data set [3] of over 10000 nM.
In the case of `CN(C(=O)[C@H](CC1CCC1)NC(=O)C(F)(F)F)[C@@H](CC1CC1)C(=O)N1C[C@@]2(C[C@H]1C#N)Oc1ncccc1NC2=O` [Compound 203], the negative-log EC50 (pEC50) in data set [1] (class symbols) and in data set [2] was over 7.00 each time. The CC50 in the data set “in vitro” was over 1000 nM. The pIC50 at SARS-Cov-2 3CLpro is over 7.70. The CC50 at 6 days in data set [3] is over 10000 nM.
On to `CN(C(=O)[C@H](CC1CC1)n1cc(-c2ccccc2)nn1)[C@@H](CC1CC1)C(=O)N1C[C@@]2(C[C@H]1C#N)Oc1cc(F)cc(F)c1NC2=O` [Compound 114, (S)—N—((S)-1-((2R,5'S)-5′-cyano-5,7-difluoro-3-oxo-3,4-dihydrospiro[benzo[b][1,4]oxazine-2,3′-pyrrolidin]-1′-yl)-3-cyclopropyl-1-oxopropan-2-yl)-3-cyclopropyl-N-methyl-2-(4-phenyl-1H-1,2,3-triazol-1-yl)propenamide], for which the pEC50 in data set [1] (class symbols) and in data set [2] was 6.00 to 7.00 throughout. The same compound registered a CC50 in the data set “in vitro” of over 1000 nM. Besides, the pIC50 on SARS-Cov-2 3CLpro was over 7.70. The compound further registered a CC50 at 6 days in data set [3] of over 10000 nM.
In the case of `CC(C)C[C@@H](C(=O)N1C[C@]2(C[C@H]1C#N)C(=O)Nc1ccnn12)N(C)C(=O)[C@H](C)NC(=O)C(F)(F)F` [Example 45, (2S)—N-[(2S)-1-[(3R,5'S)-5′-cyano-2-oxo-1H-spiro[pyrazolo[1,5-a]imidazole-3,3′-pyrrolidin]-1′-yl]-4-methyl-1-oxopentan-2-yl]-N-methyl-2-(2,2,2-trifluoroacetamido)propanamide], the pEC50 in data set [1] (cells given as a bound) was under 6.00; in data set [2], 6.00 to 7.00. The same compound registered a CC50 in the data set “in vitro” of over 1000 nM. Moreover, the negative-log IC50 (pIC50) on SARS-Cov-2 3CLpro is 6.70 to 7.70. Besides, the CC50 at 6 days in data set [3] is over 10000 nM.
In the case of `CN(C(=O)c1cc2cccc(Cl)c2[nH]1)[C@@H](CC1CC1)C(=O)N1C[C@@]2(C[C@H]1C#N)Oc1cc(F)cc(F)c1NC2=O` [Compound 133], the negative-log EC50 (pEC50) in data set [1] (class symbols) and in data set [2] was 6.00 to 7.00 in each case. This compound yielded a CC50 in “in vitro” of over 1000 nM. On SARS-Cov-2 3CLpro, the negative-log IC50 (pIC50) was over 7.70. This compound also returned a CC50 at 6 days in data set [3] of over 10000 nM.
Consider `COc1ccc(C[C@@H](NC(=O)C(F)(F)F)C(=O)N(C)[C@@H](CC2CC2)C(=O)N2C[C@@]3(C[C@H]2C#N)Oc2cccnc2NC3=O)cc1` [Compound 149], for which the pEC50 in data set [1] (class symbols) and in data set [2] was over 7.00 each time. In “in vitro”, the CC50 is over 1000 nM. In addition, the pIC50 on SARS-Cov-2 3CLpro was over 7.70. This compound came in with a CC50 at 6 days in data set [3] of over 10000 nM.
With `CN(C(=O)[C@@H](NC(=O)C(F)(F)F)C1CC1)[C@@H](CC1CC1)C(=O)N1C[C@@]2(C[C@H]1C#N)Oc1cccnc1NC2=O` [Compound 179], the results for the pEC50 in data set [1] (class symbols) and in data set [2] were 6.00 to 7.00 and over 7.00, respectively. Further, the CC50 in the data set “in vitro” is over 1000 nM. Besides, on SARS-Cov-2 3CLpro, the pIC50 was over 7.70. Also, the CC50 at 6 days in data set [3] was over 10000 nM.
For `COC(=O)N[C@@H](CC1CC1)C(=O)N(C)[C@@H](CC1CC1)C(=O)N1C[C@@]2(C[C@H]1C#N)Oc1ccccc1CNC2=O` [Compound 139], the results for the pEC50 in data set [1] (class symbols) and in data set [2] were 6.00 to 7.00 and over 7.00, respectively. In addition, the CC50 in the data set “in vitro” is over 1000 nM. Further, on SARS-Cov-2 3CLpro, the pIC50 was over 7.70. In data set [3], the CC50 at 6 days was over 10000 nM.
In the same order, the values of `COC(=O)N[C@@H](C)C(=O)N(C)[C@@H](CC1CC1)C(=O)N1C[C@@]2(C[C@H]1C#N)Oc1cccnc1NC2=O` [Compound 213] are 6.00 to 7.00, over 7.00, over 1000 nM, over 7.70 and over 10000 nM.
In the same order, the values of `CC(C)[C@H](NC(=O)C(F)(F)F)C(=O)N(C)[C@@H](CC1CC1)C(=O)N1C[C@@]2(C[C@H]1C#N)Oc1cccnc1NC2=O` [Compound 177] are 6.00 to 7.00, 6.00 to 7.00, over 1000 nM, over 7.70 and over 10000 nM.
On the same counts, the results for `CN(C(=O)[C@H](CC1CC1)NC(=O)C(F)(F)F)[C@@H](CC1CC1)C(=O)N1C[C@@]2(C[C@H]1C#N)CC1(CC1)NC2=O` [Compound 60] are over 7.00, over 7.00, over 1000 nM, over 7.70 and over 10000 nM.
For the compound `CN(C(=O)[C@H](CC(C)(C)C)NC(=O)C(F)(F)F)[C@@H](CC1CC1)C(=O)N1C[C@@]2(C[C@H]1C#N)Oc1cc(F)cc(F)c1NC2=O` [Compound 89], the negative logarithm of the EC50 (pEC50) in data set [1] (class symbols) and in data set [2] was over 7.00 each time. For the same compound, the CC50 in “in vitro” was over 1000 nM. The negative logarithm of the IC50 (pIC50) at SARS-Cov-2 3CLpro is over 7.70. Further, the CC50 at 6 days in data set [3] is over 10000 nM.
`CN(C(=O)c1cc2c(F)cc(F)c(F)c2[nH]1)[C@@H](CC1CC1)C(=O)N1C[C@@]2(C[C@H]1C#N)Oc1ccccc1CNC2=O` [Compound 140]: the pEC50 in data set [1] (class symbols) and in data set [2] was over 7.00 throughout. In the data set “in vitro”, this compound showed a CC50 of over 1000 nM. In addition, on SARS-Cov-2 3CLpro, the pIC50 was over 7.70. Besides, the CC50 at 6 days in data set [3] is over 10000 nM.
With `CN(C(=O)C(=O)Nc1ccc(F)cc1)[C@@H](CC1CC1)C(=O)N1C[C@@]2(C[C@H]1C#N)Oc1cccnc1NC2=O` [Compound 226, N^1—((S)-1-((2R,5'S)-5′-cyano-3-oxo-3,4-dihydrospiro[pyrido[3,2-b][1,4]oxazine-2,3′-pyrrolidin]-1′-yl)-3-cyclopropyl-1-oxopropan-2-yl)-N^2-(4-fluorophenyl)-N^1-methyloxalamide], the negative logarithm of the EC50 (pEC50) in data set [1] (cells given as a bound) is under 6.00; in data set [2], 5.00 to 6.00. This compound also showed a CC50 in “in vitro” of over 1000 nM. In addition, at SARS-Cov-2 3CLpro, the pIC50 is 5.70 to 6.70. The CC50 at 6 days in data set [3] is over 10000 nM.
In the case of `CN(C(=O)[C@H](CC1CC1)NC(=O)C(F)(F)F)[C@@H](CC1CC1)C(=O)N1C[C@@]2(C[C@H]1C#N)Oc1cc(Cl)cc(F)c1NC2=O` [Compound 59], the pEC50 in data set [1] (class symbols) and in data set [2] was over 7.00 throughout. The CC50 in “in vitro” is over 1000 nM. In addition, the pIC50 on SARS-Cov-2 3CLpro was over 7.70. In data set [3], this compound gave a CC50 at 6 days of over 10000 nM.
As for `C[C@H](NC(=O)C(F)(F)F)C(=O)N(C)[C@@H](CC(C)(C)F)C(=O)N1C[C@@]2(C[C@H]1C#N)Oc1cc(F)cc(F)c1NC2=O` [Compound 61], the negative logarithm of the EC50 (pEC50) is 6.00 to 7.00 in data set [1] (class symbols) and 5.00 to 6.00 in data set [2]. For the same compound, the CC50 in “in vitro” is over 1000 nM. Further, on SARS-Cov-2 3CLpro, the pIC50 is over 7.70. This compound gave a CC50 at 6 days in data set [3] of over 10000 nM.
In the same order, the values of `CC(C)C[C@@H](C(=O)N1C[C@]2(CC(c3ccccc3)=NNC2=O)C[C@H]1C#N)N(C)C(=O)c1cc2c(F)cc(F)c(F)c2[nH]1` [Example 30, N—((S)-1-((3S,5R)-3-cyano-6-oxo-9-phenyl-2,7,8-triazaspiro[4.5]dec-8-en-2-yl)-4-methyl-1-oxopentan-2-yl)-4,6,7-trifluoro-N-methyl-1H-indole-2-carboxamide] are 6.00 to 7.00, 6.00 to 7.00, over 1000 nM, over 7.70 and over 10000 nM.
In the same order, the values of `CN(C(=O)[C@@H](NC(=O)C(F)(F)F)C(C)(C)C)[C@@H](CC1CC1)C(=O)N1C[C@@]2(C[C@H]1C#N)Oc1cc(F)cc(F)c1NC2=O` [Compound 53] are 6.00 to 7.00, 6.00 to 7.00, over 1000 nM, over 7.70 and over 10000 nM.
